Measurements: patent publication US5705498A, “Piperidine derivatives as 5-HT4 receptor antagonists” (SmithKline Beecham plc., priority 1992, dated 1998)

Biological target: T1, 5-HT4 receptor (Cavia porcellus, UniProt O70528)
T1 construct: Longitudinal muscle-myenteric plexus preparations, approximately 3 cm long, are obtained from the distal colon region; from tissue; host or cells: guinea-pig distal colon, longitudinal muscle-myenteric plexus preparation
Assay: Guinea pig colon longitudinal muscle-myenteric plexus, antagonism of 5-HT-evoked contraction
Conditions: guinea-pig distal colon; contraction evoked by 5-HT; methiothepin 10^-7 M and granisetron 10^-6 M present; read-out: pIC50 (-log concentration of antagonist which reduces the contraction by 50%) (converted)
Method: Male guinea-pigs, weighing 250-400 g are used. Longitudinal muscle-myenteric plexus preparations, approximately 3 cm long, are obtained from the distal colon region. These are suspended under a 0.5 g load in isolated tissue baths containing Krebs solution bubbled with 5% CO2 in O2 and maintained at 37° C. In all experiments, the Krebs solution also contains methiothepin 10^-7 M and granisetron 10^-6 M to block effects at 5-HT1, 5-HT2 and 5-HT3 receptors.
After construction of a simple concentration-response curve with 5-HT, using 30 s contact times and a 15 min dosing cycle, a concentration of 5-HT is selected so as to obtain a contraction of the muscle approximately 40-70% maximum(10^-9 M approx). The tissue is then alternately dosed every 15 min with this concentration of 5-HT and then with an approximately equi-effective concentration of the nicotine receptor stimulant, dimethylphenylpiperazinium (DMPP). After obtaining consistent responses to both 5-HT and DMPP, increasing concentrations of a putative 5-HT4 receptor antagonist are then added to the bathing solution. The effects of this compound are then determined as a percentage reduction of the contractions evoked by 5-HT or by DMPP. […] A compound which reduces the response to 5-HT but not to DMPP is believed to act as a 5-HT4 receptor antagonist.

T1 sequence (O70528 whole entry): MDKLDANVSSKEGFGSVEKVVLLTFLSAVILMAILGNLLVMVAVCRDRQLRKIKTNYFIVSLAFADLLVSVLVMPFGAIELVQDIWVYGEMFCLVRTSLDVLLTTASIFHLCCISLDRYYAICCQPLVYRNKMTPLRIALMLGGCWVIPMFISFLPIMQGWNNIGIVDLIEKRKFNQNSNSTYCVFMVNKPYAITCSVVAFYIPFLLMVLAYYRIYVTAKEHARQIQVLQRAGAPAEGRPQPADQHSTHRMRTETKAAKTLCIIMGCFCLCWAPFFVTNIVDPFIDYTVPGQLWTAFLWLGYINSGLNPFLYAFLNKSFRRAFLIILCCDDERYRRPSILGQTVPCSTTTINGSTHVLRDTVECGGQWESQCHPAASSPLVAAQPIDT

IC50: < 1 nM
SMILES: Nc1c(Cl)cc(C(=O)OCC2CCN(Cc3cccnc3)CC2)c2c1OCCO2 [Example E1, 5-(1-(3-Pyridylmethyl)-4-piperidinyl)methyl-8-amino-7-chloro-1,4-benzodioxancarboxylate]
